Test: DPPH radical scavenging antioxidant test
Conditions: 517 nm; for Inhibition (radical scavenging inhibition): 0.2 mL DPPH (0.75 mM), compound 3 μM in ethanol, 30 minutes in the dark
Description: The antioxidant activity of 6′-(4-bromophenyl)-2′-methoxy-3,4′-bipyridine-3′-carbonitrile was investigated by 2,2-diphenyl-1-picrylhydrazyl (DPPH) in vitro tests that employ vitamin C as the positive control.
The antioxidant properties of the 6′-(4-bromophenyl)-2′-methoxy-3,4′-bipyridine-3′-carbonitrile compound were studied by adding 0.2 mL DPPH (0.75 mM)) to 6′-(4-bromophenyl)-2′-methoxy-3,4′-bipyridine-3′-carbonitrile (3 μM) (4) in ethanol. After 30 minutes of incubation in the dark, the absorbance was read against a blank at 517 nm. Ascorbic acid (vitamin C) was used as standard antioxidants (positive control). A blank sample was prepared by 0.2 mL of DPPH in 3 mL ethanol. A negative control sample was run using ethanol instead of the sample. The radical scavenging inhibition was calculated using the following equation: […]
The antioxidant activity for the synthesized compound is listed in Table 1, using Vitamin C as a reference.

COc1nc(-c2ccc(Br)cc2)cc(-c2cccnc2)c1C#N [Product 4, 6′-(4-bromophenyl)-2′-methoxy-3,4′-bipyridine-3′-carbonitrile]
Inhibition (radical scavenging inhibition): 50%
antioxidant potential to vanish the DPPH radical colors, compared to vitamin C (DPPH in vitro test, vitamin C as positive control): high potential as an antioxidant compared to vitamin C

O=C1O[C@H]([C@@H](O)CO)C(O)=C1O [vit c, Ascorbic acid, reference compound]
Inhibition (radical scavenging inhibition): 74%
